Experimental data as given in PMC6688997 (Nature Communications, 2019).

Columns and labels:
Test in all cases: Kinase assay, 1 mM ATP
Type in all cases: biochemical
FRK = target: T1, FRK (Homo sapiens, UniProt P42685)
T1 construct: purchased Carna Biosciences
Method in brief: (§1)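 Off-chip mobility shift format; IC50 from 4-parameter logistic fit.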

TYRO3 = target: T2, TYRO3 (Homo sapiens, UniProt Q06418)
T2 construct: purchased Carna Biosciences
Method in brief: as §1

ITK = target: T3, ITK (Homo sapiens, UniProt Q08881)
T3 construct: purchased Carna Biosciences
Method in brief: as §1

p38β = p38β (Homo sapiens, UniProt Q15759)
Method in brief: as §1

Erk2 = Erk2 (Homo sapiens, UniProt P28482)
Method in brief: as §1

EGFR(d746-750/T790M) = target: T4, EGFR(d746-750/T790M) (Homo sapiens, UniProt P00533, DEL746-750/T790M)
T4 construct: purchased Carna Biosciences
Method in brief: as §1

GSK3α = GSK3α (Homo sapiens, UniProt P49840)
Method in brief: as §1

CDK7/CycH/MAT1 = CDK7/CycH/MAT1 (Homo sapiens, UniProt P50613)
Method in brief: as §1

EPHA2 = EPHA2 (Homo sapiens, UniProt P29317)
Method in brief: as §1

EGFR(L861Q) = target: T5, EGFR(L861Q) (Homo sapiens, UniProt P00533, L861Q)
T5 construct: purchased Carna Biosciences
Method in brief: as §1

CDK9/CycT1 = CDK9/CycT1 (Homo sapiens, UniProt P50750)
Method in brief: as §1

CHK2 = target: T6, CHK2 (Homo sapiens, UniProt O96017)
T6 construct: purchased Carna Biosciences
Method in brief: as §1

EGFR(T790M) = target: T7, EGFR(T790M) (Homo sapiens, UniProt P00533, T790M)
T7 construct: purchased Carna Biosciences
Method in brief: as §1

MET = target: T8, MET (Homo sapiens, UniProt P08581)
T8 construct: purchased Carna Biosciences
Method in brief: as §1

NEK2 = NEK2 (Homo sapiens, UniProt P51955)
Method in brief: as §1

PBK = target: T9, PBK (Homo sapiens, UniProt Q96KB5)
T9 construct: purchased Carna Biosciences
Method in brief: as §1

MER = target: T10, MER (Homo sapiens, UniProt Q12866)
T10 construct: purchased Carna Biosciences
Method in brief: as §1

p70S6K = p70S6K (Homo sapiens, UniProt P23443)
Method in brief: as §1

PLK3 = target: T11, PLK3 (Homo sapiens, UniProt Q9H4B4)
T11 construct: purchased Carna Biosciences
Method in brief: as §1

GSK3β = GSK3β (Homo sapiens, UniProt P49841)
Method in brief: as §1

CK1ε = CK1ε (Homo sapiens, UniProt P49674)
Method in brief: as §1

RSK4 = target: T12, RSK4 (Homo sapiens, UniProt Q9UK32)
T12 construct: purchased Carna Biosciences
Method in brief: as §1

EPHA1 = EPHA1 (Homo sapiens, UniProt P21709)
Method in brief: as §1

CLK1 = CLK1 (Homo sapiens, UniProt P49759)
Method in brief: as §1

PKCα = PKCα (Homo sapiens, UniProt P17252)
Method in brief: as §1

SRC = SRC (Homo sapiens, UniProt P12931)
Method in brief: as §1

JNK2 = JNK2 (Homo sapiens, UniProt P45984)
Method in brief: as §1

BRSK1 = BRSK1 (Homo sapiens, UniProt Q8TDC3)
Method in brief: as §1

PKCε = target: T13, PKCε (Homo sapiens, UniProt Q02156)
T13 construct: purchased Carna Biosciences
Method in brief: as §1

TNK1 = target: T14, TNK1 (Homo sapiens, UniProt Q13470)
T14 construct: purchased Carna Biosciences
Method in brief: as §1

AurB = AurB (Homo sapiens, UniProt Q96GD4)
Method in brief: as §1

EPHA4 = target: T15, EPHA4 (Homo sapiens, UniProt P54764)
T15 construct: purchased Carna Biosciences
Method in brief: as §1

EPHA8 = target: T16, EPHA8 (Homo sapiens, UniProt P29322)
T16 construct: purchased Carna Biosciences
Method in brief: as §1

BMX = target: T17, BMX (Homo sapiens, UniProt P51813)
T17 construct: purchased Carna Biosciences
Method in brief: as §1

SGK = target: T18, SGK (Homo sapiens, UniProt O00141)
T18 construct: purchased Carna Biosciences
Method in brief: as §1

JNK1 = JNK1 (Homo sapiens, UniProt P45983)
Method in brief: as §1

PDGFRα = target: T19, PDGFRα (Homo sapiens, UniProt P16234)
T19 construct: purchased Carna Biosciences
Method in brief: as §1

EPHA3 = EPHA3 (Homo sapiens, UniProt P29320)
Method in brief: as §1

CaMK1α = CaMK1α (Homo sapiens, UniProt Q14012)
Method in brief: as §1

CDC2/CycB1 = CDC2/CycB1 (Homo sapiens, UniProt P06493)
Method in brief: as §1

PKD2 = target: T20, PKD2 (Homo sapiens, UniProt Q9BZL6)
T20 construct: purchased Carna Biosciences
Method in brief: as §1

TNIK = target: T21, TNIK (Homo sapiens, UniProt Q9UKE5)
T21 construct: purchased Carna Biosciences
Method in brief: as §1

Chain of CLK1 (P49759 whole entry): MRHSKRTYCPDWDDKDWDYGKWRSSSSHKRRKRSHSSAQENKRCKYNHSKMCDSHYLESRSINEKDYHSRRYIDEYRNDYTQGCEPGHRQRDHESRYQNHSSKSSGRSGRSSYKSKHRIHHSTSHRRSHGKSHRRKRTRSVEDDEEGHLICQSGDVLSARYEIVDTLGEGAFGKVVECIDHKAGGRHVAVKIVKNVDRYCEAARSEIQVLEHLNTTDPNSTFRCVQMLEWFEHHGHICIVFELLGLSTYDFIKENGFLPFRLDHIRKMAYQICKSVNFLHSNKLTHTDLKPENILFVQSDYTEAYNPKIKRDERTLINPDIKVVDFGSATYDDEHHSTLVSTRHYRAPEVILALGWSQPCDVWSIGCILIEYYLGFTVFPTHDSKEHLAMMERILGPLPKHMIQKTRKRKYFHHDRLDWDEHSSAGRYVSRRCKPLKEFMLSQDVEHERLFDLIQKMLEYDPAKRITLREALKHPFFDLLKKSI
Chain of p70S6K (P23443 whole entry): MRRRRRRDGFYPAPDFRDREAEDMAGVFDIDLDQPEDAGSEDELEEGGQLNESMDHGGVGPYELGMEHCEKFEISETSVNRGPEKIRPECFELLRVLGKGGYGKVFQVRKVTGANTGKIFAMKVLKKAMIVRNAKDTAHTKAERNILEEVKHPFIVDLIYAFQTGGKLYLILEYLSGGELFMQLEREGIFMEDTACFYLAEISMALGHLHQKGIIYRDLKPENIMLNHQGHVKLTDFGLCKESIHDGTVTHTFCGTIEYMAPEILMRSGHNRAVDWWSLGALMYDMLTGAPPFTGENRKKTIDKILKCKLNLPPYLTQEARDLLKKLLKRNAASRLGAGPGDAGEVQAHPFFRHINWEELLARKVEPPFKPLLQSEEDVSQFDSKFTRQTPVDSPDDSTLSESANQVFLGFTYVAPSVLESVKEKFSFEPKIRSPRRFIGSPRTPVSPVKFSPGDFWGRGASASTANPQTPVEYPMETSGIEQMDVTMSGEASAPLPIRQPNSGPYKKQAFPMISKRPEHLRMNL
Chain of NEK2 (P51955 whole entry): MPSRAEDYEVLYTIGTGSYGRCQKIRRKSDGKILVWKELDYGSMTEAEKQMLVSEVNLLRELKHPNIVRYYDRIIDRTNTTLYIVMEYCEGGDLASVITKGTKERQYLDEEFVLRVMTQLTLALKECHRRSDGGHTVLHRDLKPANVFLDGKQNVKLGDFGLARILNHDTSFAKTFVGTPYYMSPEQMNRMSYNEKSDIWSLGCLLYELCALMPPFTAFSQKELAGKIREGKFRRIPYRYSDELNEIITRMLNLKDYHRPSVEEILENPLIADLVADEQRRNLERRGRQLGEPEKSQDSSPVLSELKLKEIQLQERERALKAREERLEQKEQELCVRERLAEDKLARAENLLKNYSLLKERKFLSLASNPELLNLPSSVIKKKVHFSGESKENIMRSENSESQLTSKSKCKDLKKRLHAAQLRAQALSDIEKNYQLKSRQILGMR
Chain of EPHA1 (P21709 26-976): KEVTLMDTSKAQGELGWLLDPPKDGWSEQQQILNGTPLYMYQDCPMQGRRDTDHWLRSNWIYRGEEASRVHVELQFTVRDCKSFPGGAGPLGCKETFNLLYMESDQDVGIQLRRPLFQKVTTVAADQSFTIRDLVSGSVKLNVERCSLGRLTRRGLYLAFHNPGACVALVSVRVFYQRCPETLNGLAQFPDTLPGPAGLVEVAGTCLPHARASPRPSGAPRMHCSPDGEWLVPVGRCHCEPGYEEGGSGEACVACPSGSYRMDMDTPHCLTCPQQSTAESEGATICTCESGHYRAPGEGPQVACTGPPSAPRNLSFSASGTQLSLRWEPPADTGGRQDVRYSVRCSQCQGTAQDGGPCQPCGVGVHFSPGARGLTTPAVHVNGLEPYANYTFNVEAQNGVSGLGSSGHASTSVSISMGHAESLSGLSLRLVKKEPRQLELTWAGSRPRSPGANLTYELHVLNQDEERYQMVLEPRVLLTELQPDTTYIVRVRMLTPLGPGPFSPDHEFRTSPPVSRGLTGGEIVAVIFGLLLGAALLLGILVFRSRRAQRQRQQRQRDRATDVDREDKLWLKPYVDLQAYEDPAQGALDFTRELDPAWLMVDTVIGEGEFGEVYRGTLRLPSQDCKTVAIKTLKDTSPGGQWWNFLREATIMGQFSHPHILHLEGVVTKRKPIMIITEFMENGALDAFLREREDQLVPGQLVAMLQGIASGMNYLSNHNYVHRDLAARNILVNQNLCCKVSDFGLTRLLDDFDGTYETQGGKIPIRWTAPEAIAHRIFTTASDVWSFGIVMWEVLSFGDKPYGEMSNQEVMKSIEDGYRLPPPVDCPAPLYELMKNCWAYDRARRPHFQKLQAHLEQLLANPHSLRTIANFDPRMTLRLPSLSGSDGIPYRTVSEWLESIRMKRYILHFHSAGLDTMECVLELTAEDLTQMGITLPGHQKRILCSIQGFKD
Chain of JNK1 (P45983 whole entry): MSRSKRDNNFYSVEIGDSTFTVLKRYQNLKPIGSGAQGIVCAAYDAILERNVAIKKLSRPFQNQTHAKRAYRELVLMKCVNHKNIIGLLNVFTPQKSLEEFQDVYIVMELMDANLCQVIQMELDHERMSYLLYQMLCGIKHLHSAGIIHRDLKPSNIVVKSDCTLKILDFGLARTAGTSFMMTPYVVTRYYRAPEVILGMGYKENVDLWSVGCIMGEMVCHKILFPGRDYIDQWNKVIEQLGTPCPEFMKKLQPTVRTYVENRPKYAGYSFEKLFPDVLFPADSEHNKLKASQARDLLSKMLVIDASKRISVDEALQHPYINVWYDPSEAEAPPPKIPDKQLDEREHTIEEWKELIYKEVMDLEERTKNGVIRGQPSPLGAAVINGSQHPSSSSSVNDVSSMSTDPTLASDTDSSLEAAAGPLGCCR
T10 sequence (Q12866 21-999): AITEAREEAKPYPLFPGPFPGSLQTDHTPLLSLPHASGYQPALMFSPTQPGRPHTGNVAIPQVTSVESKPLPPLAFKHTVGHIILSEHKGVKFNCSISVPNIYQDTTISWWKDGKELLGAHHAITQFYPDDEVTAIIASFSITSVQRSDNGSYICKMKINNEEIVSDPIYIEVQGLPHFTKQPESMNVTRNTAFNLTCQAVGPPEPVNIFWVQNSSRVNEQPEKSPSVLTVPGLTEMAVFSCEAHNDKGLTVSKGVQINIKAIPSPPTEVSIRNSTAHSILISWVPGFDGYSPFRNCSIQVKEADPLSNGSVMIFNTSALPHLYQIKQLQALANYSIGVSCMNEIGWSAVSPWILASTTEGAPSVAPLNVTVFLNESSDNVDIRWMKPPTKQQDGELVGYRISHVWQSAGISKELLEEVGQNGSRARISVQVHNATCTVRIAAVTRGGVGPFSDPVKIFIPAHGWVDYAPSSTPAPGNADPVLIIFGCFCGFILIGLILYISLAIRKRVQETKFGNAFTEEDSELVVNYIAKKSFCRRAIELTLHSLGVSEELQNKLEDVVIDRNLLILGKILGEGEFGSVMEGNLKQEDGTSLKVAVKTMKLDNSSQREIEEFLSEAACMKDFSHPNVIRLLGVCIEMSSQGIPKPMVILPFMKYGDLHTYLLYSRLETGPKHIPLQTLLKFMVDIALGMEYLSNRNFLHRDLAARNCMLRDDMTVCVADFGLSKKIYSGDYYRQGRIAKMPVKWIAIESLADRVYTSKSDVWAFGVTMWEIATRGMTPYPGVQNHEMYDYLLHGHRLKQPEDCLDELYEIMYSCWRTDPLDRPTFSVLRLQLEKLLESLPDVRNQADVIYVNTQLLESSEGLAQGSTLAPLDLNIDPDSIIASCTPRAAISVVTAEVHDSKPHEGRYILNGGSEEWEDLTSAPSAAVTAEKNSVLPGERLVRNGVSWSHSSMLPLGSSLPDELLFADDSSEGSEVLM
Chain of CDC2/CycB1 (P06493 whole entry): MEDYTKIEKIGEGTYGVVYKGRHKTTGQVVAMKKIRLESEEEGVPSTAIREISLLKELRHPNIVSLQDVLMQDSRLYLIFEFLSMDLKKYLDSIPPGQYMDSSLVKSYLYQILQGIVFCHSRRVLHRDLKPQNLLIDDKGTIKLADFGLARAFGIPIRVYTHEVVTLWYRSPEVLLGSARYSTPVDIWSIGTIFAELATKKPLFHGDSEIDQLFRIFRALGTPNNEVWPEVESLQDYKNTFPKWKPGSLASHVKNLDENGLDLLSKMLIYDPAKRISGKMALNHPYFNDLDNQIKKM
Chain of CDC2/CycB1 (P14635 whole entry partner): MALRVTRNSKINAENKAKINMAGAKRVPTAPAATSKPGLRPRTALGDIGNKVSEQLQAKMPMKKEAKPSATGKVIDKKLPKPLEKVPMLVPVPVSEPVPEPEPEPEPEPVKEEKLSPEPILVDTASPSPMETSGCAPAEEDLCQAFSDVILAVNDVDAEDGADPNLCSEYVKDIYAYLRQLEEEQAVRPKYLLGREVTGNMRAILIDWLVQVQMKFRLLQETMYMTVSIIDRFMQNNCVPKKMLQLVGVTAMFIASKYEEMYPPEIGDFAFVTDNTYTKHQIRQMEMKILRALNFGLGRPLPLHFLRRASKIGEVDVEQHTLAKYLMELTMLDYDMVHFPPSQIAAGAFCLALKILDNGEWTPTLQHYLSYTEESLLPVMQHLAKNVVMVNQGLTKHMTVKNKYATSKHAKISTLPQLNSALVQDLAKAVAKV
T9 sequence (Q96KB5 whole entry): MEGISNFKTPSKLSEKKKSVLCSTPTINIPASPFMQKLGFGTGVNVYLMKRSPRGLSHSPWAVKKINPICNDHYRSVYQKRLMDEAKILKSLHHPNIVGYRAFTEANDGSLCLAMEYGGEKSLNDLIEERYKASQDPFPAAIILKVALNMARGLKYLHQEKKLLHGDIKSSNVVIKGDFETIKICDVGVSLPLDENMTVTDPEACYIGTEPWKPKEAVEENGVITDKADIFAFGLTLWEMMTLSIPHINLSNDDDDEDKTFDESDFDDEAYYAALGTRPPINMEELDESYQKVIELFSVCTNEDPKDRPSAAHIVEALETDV

C[C@@H](N)COc1ccc(-c2cnc3ccc(N[C@H](C)c4cccc(F)c4)nn23)cc1.O=C(O)CCCCC(=O)O [DS-6051b]
inhibition at 0.2 µM (FRK): 8.1% | inhibition at 0.2 µM (TYRO3): -1.2% | inhibition at 0.2 µM (ITK): -2.5% | inhibition at 0.2 µM (p38β): 0.7% | inhibition at 0.2 µM (Erk2): -3.8% | inhibition at 0.2 µM (EGFR(d746-750/T790M)): -0.9% | inhibition at 0.2 µM (GSK3α): -3.4% | inhibition at 0.2 µM (CDK7/CycH/MAT1): -0.3% | inhibition at 0.2 µM (EPHA2): -2.2% | inhibition at 0.2 µM (EGFR(L861Q)): -3.6% | inhibition at 0.2 µM (CDK9/CycT1): -2.9% | inhibition at 0.2 µM (CHK2): 0.3% | inhibition at 0.2 µM (EGFR(T790M)): -1.6% | inhibition at 0.2 µM (MET): -6.2% | inhibition at 0.2 µM (NEK2): -0.8% | inhibition at 0.2 µM (PBK): -0.645% | inhibition at 0.2 µM (MER): 7.1% | inhibition at 0.2 µM (p70S6K): 8.3% | inhibition at 0.2 µM (PLK3): -3.3% | inhibition at 0.2 µM (GSK3β): -23.2% | inhibition at 0.2 µM (CK1ε): -8.9% | inhibition at 0.2 µM (RSK4): -5.4% | inhibition at 0.2 µM (EPHA1): 4.8% | inhibition at 0.2 µM (CLK1): 2% | inhibition at 0.2 µM (PKCα): 2% | inhibition at 0.2 µM (SRC): 9% | inhibition at 0.2 µM (JNK2): -5.1% | inhibition at 0.2 µM (BRSK1): -4.8% | inhibition at 0.2 µM (PKCε): 18.8% | inhibition at 0.2 µM (TNK1): 12.7% | inhibition at 0.2 µM (AurB): -12.2% | inhibition at 0.2 µM (EPHA4): -3.4% | inhibition at 0.2 µM (EPHA8): -9.1% | inhibition at 0.2 µM (BMX): 10% | inhibition at 0.2 µM (SGK): -3.8% | inhibition at 0.2 µM (JNK1): -3.3% | inhibition at 0.2 µM (PDGFRα): 5.7% | inhibition at 0.2 µM (EPHA3): 2.8% | inhibition at 0.2 µM (CaMK1α): -8.6% | inhibition at 0.2 µM (CDC2/CycB1): -6.7% | inhibition at 0.2 µM (PKD2): -17.3% | inhibition at 0.2 µM (TNIK): -3%
